From US4039540A, “3-Substituted quinoxaline-2-carboxamide-1,4-dioxides” (Pfizer Inc., priority 1975, dated 1977)
Values after ≈ are worked out from the molar mass of the structure shown. Where two headings read alike, the source gives them in different places.

Assays:
E. coli [1] = test: in vitro antibacterial activity, two-fold serial dilution in Brain-Heart Infusion Broth (MIC); assay type: cell-based; conditions: Escherichia coli, overnight, anaerobic
Experimental: (§1) The broth is inoculated with bacteria and with the test quinoxaline-1,4-dioxide and then it is incubated overnight under anerobic conditions. On the next day, the test is read visually. The minimum inhibitory concentration (MIC) of test compound is the lowest concentration which prevents turbidity, i.e., which prevents growth of the microorganism.
(§2) In vitro and in vivo activity of representative compounds of this invention, determined as aforesaid, are reported in the following tabulation for compounds of the formula: [drawing 12]

Strep. pyrogens = test: as above; assay type: cell-based; conditions: overnight, anaerobic
Experimental: as §1, §2

Strep. pyogenes = test: in vivo activity in mice infected with a lethal inoculum of Strep. pyogenes; conditions: Streptococcus pyogenes, multiple dosing
Experimental: (§3) In determining the in vivo activity of the quinoxaline-1,4-dioxides of this invention, the test compound is administered to mice which have been infected by […] injection of a lethal inoculum of pathogenic bacteria. The test compound is administered using a multiple dosing regimen and using either the oral (PO) or the subcutaneous (SC) route. The inoculum of bacteria varies from about 1 to about 10 times the amount needed to kill 100% of the mice under the conditions of the test. At the end of the test, the activity of the compound is assessed by counting the number of survivors among the treated animals.
as §2

E. coli [2] = test: in vivo activity in mice infected with a lethal inoculum of E. coli; conditions: Escherichia coli, sc, subcutaneous, multiple dosing, read-out: IN VIVO E. coli, number of survivors among the treated animals
Experimental: as §3, §2

[3] = oral, read-out: IN VIVO Strep. pyogenes, number of survivors among the treated animals, PO (data in parenthesis)
[4] = sc, subcutaneous, read-out: IN VIVO Strep. pyogenes, number of survivors among the treated animals

| SMILES | MIC (E. coli [1]) | MIC (Strep. pyrogens) | responders at 50 mg/kg (Strep. pyogenes; [3]) | responders at 50 mg/kg (Strep. pyogenes; [4]) | responders at 25 mg/kg (E. coli [2]) |
| --- | --- | --- | --- | --- | --- |
| CNC(=O)c1c(CSCCO)[n+]([O-])c2ccccc2[n+]1[O-] [NHMe; SCH2 CH2 OH; H] | 0.781 µg/mL (≈ 2.52 µM) | 0.781 µg/mL (≈ 2.52 µM) | 60% | 100% | 100% |
| O=C(NCCO)c1c(CS(=O)(=O)CCO)[n+]([O-])c2ccccc2[n+]1[O-] [NHCH2 CH2 OH; SO2 CH2 CH2 OH; H] | 100 µg/mL (≈ 269 µM) | 25 µg/mL (≈ 67.3 µM) | 10% | 30% | 10% |
| CCOC(=O)CSCc1c(C(=O)NC)[n+]([O-])c2ccccc2[n+]1[O-] [NHCH3; SCH2 CO2 Et; H] | 12.5 µg/mL (≈ 35.6 µM) | 12.5 µg/mL (≈ 35.6 µM) | 0% | 0% | 30% |
| CN(C)CCNC(=O)c1c(CS(=O)(=O)CCO)[n+]([O-])c2ccccc2[n+]1[O-] [NHCH2 CH2 N(CH3)2; SO2 CH2 CH2 OH; H] | 50 µg/mL (≈ 125 µM) | 100 µg/mL (≈ 251 µM) | – | 20% | 0% |
| CN(C)C(=O)c1c(CS(=O)(=O)CCCN2CCCC2)[n+]([O-])c2ccccc2[n+]1[O-] [N(CH3)2; drawing 15; H] | 6.25 µg/mL (≈ 14.8 µM) | 3.12 µg/mL (≈ 7.4 µM) | – | – | 80% |
| CN(C)C(=O)c1c(CS(=O)(=O)CCCN2CCCCC2)[n+]([O-])c2ccccc2[n+]1[O-] [N(CH3)2; drawing 27; H] | 3.12 µg/mL (≈ 7.16 µM) | 3.12 µg/mL (≈ 7.16 µM) | 100% | 100% | 90% |
| CCNC(=O)c1c(CSCCO)[n+]([O-])c2ccccc2[n+]1[O-] [NHCH2 CH3; SCH2 CH2 OH; H] | 6.25 µg/mL (≈ 19.3 µM) | 3.12 µg/mL (≈ 9.66 µM) | 20% | 20% | 40% |
| O=C(NCCO)c1c(CSCCO)[n+]([O-])c2ccccc2[n+]1[O-] [NHCH2 CH2 OH; SCH2 CH2 OH; H] | 50 µg/mL (≈ 147 µM) | 12.5 µg/mL (≈ 36.8 µM) | 50% | 30% | 0% |
| CCCNC(=O)c1c(CS(=O)(=O)CCO)[n+]([O-])c2ccccc2[n+]1[O-] [NHPr; SO2 CH2 CH2 OH; H] | 3.12 µg/mL (≈ 8.46 µM) | 3.12 µg/mL (≈ 8.46 µM) | 70% | 40% | 20% |
| CCN(CC)CCCS(=O)(=O)Cc1c(C(N)=O)[n+]([O-])c2ccccc2[n+]1[O-] [NH2; SO2 (CH2)3 N(CH2 CH3)2; H] | 6.25 µg/mL (≈ 15.8 µM) | 3.12 µg/mL (≈ 7.88 µM) | 50% | 90% | 80% |
| CNC(=O)c1c(CS(=O)(=O)CCCCN(C)C)[n+]([O-])c2ccccc2[n+]1[O-] [NHCH3; SO2 (CH2)4 N(CH3)2; H] | 50 µg/mL (≈ 126 µM) | 50 µg/mL (≈ 126 µM) | – | – | 40% |
| CNC(=O)c1c(CS(=O)(=O)CCCO)[n+]([O-])c2ccccc2[n+]1[O-] [NHMe; SO2 CH2 CH2 CH2 OH; H] | 12.5 µg/mL (≈ 35.2 µM) | 3.12 µg/mL (≈ 8.79 µM) | 30% | 90% | 70% |
| NC(=O)c1c(CS(=O)(=O)CCCN2CCOCC2)[n+]([O-])c2ccccc2[n+]1[O-] [NH2; drawing 20; H] | 12.5 µg/mL (≈ 30.5 µM) | 12.5 µg/mL (≈ 30.5 µM) | 60% | 100% | 20% |
| CCNC(=O)c1c(CS(=O)(=O)CCCCN(C)C)[n+]([O-])c2ccccc2[n+]1[O-] [NHCH2 CH3; SO2 (CH2)4 N(CH3)2; H] | 50 µg/mL (≈ 122 µM) | 12.5 µg/mL (≈ 30.5 µM) | – | – | 20% |
| COCCNC(=O)c1c(CS(=O)(=O)CCCN(C)C)[n+]([O-])c2ccccc2[n+]1[O-] [NHCH2 CH2 OCH3; SO2 (CH2)3 N(CH3)2; H] | 50 µg/mL (≈ 117 µM) | 1.56 µg/mL (≈ 3.66 µM) | 50% | 100% | 10% |
| O=C(NCc1ccccc1)c1c(CS(=O)(=O)CCO)[n+]([O-])c2ccccc2[n+]1[O-] [NHCH2 .phi.; SO2 CH2 CH2 OH; H] | 200 µg/mL (≈ 479 µM) | 0.781 µg/mL (≈ 1.87 µM) | 20% | 20% | 20% |
| NC(=O)c1c(CS(=O)(=O)CCO)[n+]([O-])c2ccccc2[n+]1[O-] [NH2; SO2 CH2 CH2 OH; H] | 12.5 µg/mL (≈ 38.2 µM) | 6.25 µg/mL (≈ 19.1 µM) | 80% | 40% | 0% |
| CNC(=O)c1c(CS(=O)(=O)CCOC(C)=O)[n+]([O-])c2ccccc2[n+]1[O-] [NHCH3; SO2 CH2 CH2 OAc; H] | 3.12 µg/mL (≈ 8.15 µM) | < 0.391 µg/mL | 70% | 90% | 80% |
| CNC(=O)c1c(CS(=O)(=O)CCCN2CCOCC2)[n+]([O-])c2ccccc2[n+]1[O-] [NHCH3; drawing 18; H] | 25 µg/mL (≈ 58.9 µM) | 25 µg/mL (≈ 58.9 µM) | 70% | 100% | 0% |
| CNC(=O)c1c(CS(=O)(=O)CCO)[n+]([O-])c2ccccc2[n+]1[O-] [NHCH3; SO2 CH2 CH2 OH; H] | 0.781 µg/mL (≈ 2.29 µM) | 1.56 µg/mL (≈ 4.58 µM) | 40% | 80% | 100% |
| CCNC(=O)c1c(CS(=O)(=O)CCCN2CCCC2)[n+]([O-])c2ccccc2[n+]1[O-] [NHCH2 CH3; drawing 16; H] | 50 µg/mL (≈ 118 µM) | 12.5 µg/mL (≈ 29.6 µM) | – | – | 60% |
| CN(C)C(=O)c1c(CS(=O)(=O)CCCN2CCOCC2)[n+]([O-])c2ccccc2[n+]1[O-] [N(CH3)2; drawing 19; H] | 25 µg/mL (≈ 57 µM) | 25 µg/mL (≈ 57 µM) | 10% | 0% | 20% |
| CCCNC(=O)c1c(CS(=O)(=O)CCCOC(C)=O)[n+]([O-])c2ccccc2[n+]1[O-] [NHCH2 CH2 CH3; SO2 CH2 CH2 CH2 OAc; H] | 200 µg/mL (≈ 470 µM) | 50 µg/mL (≈ 118 µM) | 0% | 30% | 0% |
| COCCNC(=O)c1c(CS(=O)(=O)CCCN2CCCCC2)[n+]([O-])c2ccccc2[n+]1[O-] [NHCH2 CH2 OCH3; drawing 25; H] | 50 µg/mL (≈ 107 µM) | 1.56 µg/mL (≈ 3.35 µM) | 100% | 100% | 20% |
| O=C(NCCCCc1ccccc1)c1c(CS(=O)(=O)CCO)[n+]([O-])c2ccccc2[n+]1[O-] [NH(CH2)4 .phi.; SO2 CH2 CH2 OH; H] | > 200 µg/mL | 3.12 µg/mL (≈ 6.8 µM) | 10% | 10% | 20% |
| CN(C)CCNC(=O)c1c(CS(=O)(=O)CCCN2CCCCC2)[n+]([O-])c2ccccc2[n+]1[O-] [NHCH2 CH2 N(CH3)2; drawing 21; H] | 100 µg/mL (≈ 209 µM) | 50 µg/mL (≈ 104 µM) | – | – | 40% |
| NC(=O)c1c(CS(=O)(=O)CCCN2CCCC2)[n+]([O-])c2ccccc2[n+]1[O-] [NH2; drawing 14; H] | 12.5 µg/mL (≈ 31.7 µM) | 6.25 µg/mL (≈ 15.8 µM) | – | – | 50% |
| CNC(=O)c1c(CS(=O)(=O)CCCN2CCCC2)[n+]([O-])c2ccccc2[n+]1[O-] [NHCH3; drawing 13; H] | 6.25 µg/mL (≈ 15.3 µM) | 3.12 µg/mL (≈ 7.65 µM) | – | – | 80% |
